Assay [1] addresses T1, Cannabinoid receptor 1 (Homo sapiens, UniProt P21554). Description: Displacement of radioligand from human CB1 receptor expressed in HEK293 cells at 10 uM. Type of assay: cell-based.
Assay [2] deals with T1, Cannabinoid receptor 1. Description: Displacement of radioligand from human CB1 receptor expressed in HEK293 cells. Type of assay: cell-based.
The next assay deals with Cannabinoid receptor 2 (Homo sapiens, UniProt P34972). Description: Displacement of radioligand from human CB2 receptor expressed in HEK293 cells. Format: cell-based.
Another assay is filed under the species Homo sapiens. The experiment in a line: Selectivity ratio, Ki for human CB2 receptor to Ki for human CB1 receptor.
For assay [3], the target named is T1, Cannabinoid receptor 1. The experiment in a line: Inverse agonist activity at human CB1 receptor expressed in HEK293 EBNA cells by [35S]GTPgammaS incorporation assay. Type of assay: functional, cell-based.

Cannabinoid receptor 2, sequence (P34972 whole entry): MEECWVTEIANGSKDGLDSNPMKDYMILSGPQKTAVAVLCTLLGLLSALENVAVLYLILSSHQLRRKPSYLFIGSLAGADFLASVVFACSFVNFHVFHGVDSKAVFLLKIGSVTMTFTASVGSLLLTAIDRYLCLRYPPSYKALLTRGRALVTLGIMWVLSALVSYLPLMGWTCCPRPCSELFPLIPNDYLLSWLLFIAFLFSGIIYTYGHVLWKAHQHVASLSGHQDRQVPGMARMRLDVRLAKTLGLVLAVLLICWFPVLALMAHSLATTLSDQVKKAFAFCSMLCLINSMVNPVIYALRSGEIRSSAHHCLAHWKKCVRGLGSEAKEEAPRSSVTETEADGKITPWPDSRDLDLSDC
T1 sequence (P21554 whole entry): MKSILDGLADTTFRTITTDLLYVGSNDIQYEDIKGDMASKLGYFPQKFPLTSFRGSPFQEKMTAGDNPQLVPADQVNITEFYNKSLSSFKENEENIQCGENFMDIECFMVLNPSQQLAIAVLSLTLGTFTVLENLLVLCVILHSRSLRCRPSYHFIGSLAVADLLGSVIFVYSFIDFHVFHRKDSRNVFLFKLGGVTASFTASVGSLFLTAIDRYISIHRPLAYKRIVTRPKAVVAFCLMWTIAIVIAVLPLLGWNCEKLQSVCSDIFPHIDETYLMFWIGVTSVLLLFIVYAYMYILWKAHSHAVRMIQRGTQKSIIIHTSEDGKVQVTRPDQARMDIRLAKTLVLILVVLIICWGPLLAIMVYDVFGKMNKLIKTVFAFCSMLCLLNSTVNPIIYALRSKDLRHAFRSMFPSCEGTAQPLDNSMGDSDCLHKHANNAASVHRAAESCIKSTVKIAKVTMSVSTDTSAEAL

For `Cc1c(C(=O)N2CCN(C)CC2)oc2ccc(S(=O)(=O)N3CC(C)CC(C)C3)cc12` (stereo not drawn), the inhibition at Cannabinoid receptor 1 [1] turned out to be 27%.
For `Cc1ccc(CNC(=O)c2oc3ccc(S(=O)(=O)N4CC(C)CC(C)C4)cc3c2C)cc1` (stereo not drawn), the inhibition constant Ki on Cannabinoid receptor 1 [2] was found to be 0.079 µM; at Cannabinoid receptor 2, 19.1 µM. Besides, the Ratio Ki in the assay listed under Homo sapiens stood at 242. On Cannabinoid receptor 1 [1], this compound showed an inhibition of 93%.
`CCN(CC)S(=O)(=O)c1ccc2oc(C(=O)N(C)Cc3ccccc3)c(C)c2c1` yielded an inhibition at Cannabinoid receptor 1 [1] of 11%.
`Cc1c(C(=O)NCc2ccccc2)oc2ccc(S(=O)(=O)N3CC(C)CC(C)C3)cc12` (stereo not drawn): the Ki on Cannabinoid receptor 1 [2] came out at 0.077 µM; at Cannabinoid receptor 2 it was 6.6 µM. The Ratio Ki in the assay filed under Homo sapiens was found to be 86. For the same compound, on Cannabinoid receptor 1 [1], the inhibition worked out at 92%.
As to `Cc1c(C(=O)Nc2cccc(Cl)c2)oc2ccc(S(=O)(=O)N3CC(C)CC(C)C3)cc12` (stereo not drawn), at Cannabinoid receptor 1 [1], the inhibition came out at 70%.
With `CCN(CC)CCCNC(=O)c1oc2ccc(S(=O)(=O)N3CC(C)CC(C)C3)cc2c1C` (stereo not drawn), the inhibition on Cannabinoid receptor 1 [1] was below 1%.
As to `CCCCNC(=O)c1oc2ccc(S(=O)(=O)N3CC(C)CC(C)C3)cc2c1C` (stereo not drawn), the Ki was determined as 0.094 µM at Cannabinoid receptor 1 [2] and 9.4 µM at Cannabinoid receptor 2. In the assay filed under Homo sapiens, the Ratio Ki is 100. The compound further returned an inhibition at Cannabinoid receptor 1 [1] of 92%.
The matching figures for `Cc1c(C(=O)NCc2ccccc2Cl)oc2ccc(S(=O)(=O)N3CC(C)CC(C)C3)cc12` (stereo not drawn): 0.058 µM, 4.8 µM, 83 and 95%.
Compound `Cc1c(C(=O)NCc2ccccn2)oc2ccc(S(=O)(=O)N3CC(C)CC(C)C3)cc12` (stereo not drawn) registered an inhibition at Cannabinoid receptor 1 [1] of 10%.
For the compound `Cc1c(C(=O)NCc2ccc(F)cc2)oc2ccc(S(=O)(=O)N3CC(C)CC(C)C3)cc12` (stereo not drawn), the inhibitory constant (Ki) at Cannabinoid receptor 1 [2] amounted to 0.062 µM; on Cannabinoid receptor 2 it was 4 µM. In addition, the Ratio Ki in the assay filed under Homo sapiens came to 65. The compound further yielded an inhibition at Cannabinoid receptor 1 [1] of 95%.
At Cannabinoid receptor 1 [1], `Cc1c(C(=O)NC2CC2)oc2ccc(S(=O)(=O)N3CC(C)CC(C)C3)cc12` (stereo not drawn) yielded an inhibition of 83%.
In turn, `Cc1c(C(=O)N(C)Cc2ccccc2)oc2ccc(S(=O)(=O)N3CCCC3)cc12` yielded an inhibition on Cannabinoid receptor 1 [1] of 20%.
On to `Cc1c(C(=O)NC2CCCCC2)oc2ccc(S(=O)(=O)N3CC(C)CC(C)C3)cc12` (stereo not drawn), for which the inhibitory constant (Ki) on Cannabinoid receptor 1 [2] turned out to be 0.108 µM; on Cannabinoid receptor 2 it was 17.4 µM. Besides, the Ratio Ki in the assay listed under Homo sapiens stood at 161. At Cannabinoid receptor 1 [1], this compound gave an inhibition of 95%.
Consider `Cc1c(C(=O)NCc2cccnc2)oc2ccc(S(=O)(=O)N3CC(C)CC(C)C3)cc12` (stereo not drawn), for which the inhibition on Cannabinoid receptor 1 [1] worked out at 46%.
`Cc1c(C(=O)N(C)CCC#N)oc2ccc(S(=O)(=O)N3CC(C)CC(C)C3)cc12` (stereo not drawn) gave an inhibition on Cannabinoid receptor 1 [1] of 50%.
Turning to `CCN(CC)C(=O)c1oc2ccc(S(=O)(=O)N3CC(C)CC(C)C3)cc2c1C` (stereo not drawn), at Cannabinoid receptor 1 [1], the inhibition stood at 89%.
Compound `COc1ccc(Cl)cc1NC(=O)c1oc2ccc(S(=O)(=O)N3CC(C)CC(C)C3)cc2c1C` (stereo not drawn) displayed an inhibition on Cannabinoid receptor 1 [1] of 12%.
Turning to `CCN(Cc1ccccc1)C(=O)c1oc2ccc(S(=O)(=O)N3CC(C)CC(C)C3)cc2c1C` (stereo not drawn), a half-maximal response on Cannabinoid receptor 1 [3] (EC50) required 0.435 µM. The results for the inhibition constant (Ki) on Cannabinoid receptor 1 [2] and on Cannabinoid receptor 2 were 0.092 µM and 3.1 µM, respectively. Further, the Ratio Ki in the assay filed under Homo sapiens was found to be 34. Further, the inhibition at Cannabinoid receptor 1 [1] turned out to be 98%.
Consider `Cc1c(C(=O)N(C)Cc2ccccc2)oc2ccc(S(=O)(=O)N3CC(C)CC(C)C3)cc12` (stereo not drawn), for which the figures for the inhibition constant (Ki) on Cannabinoid receptor 1 [2] and at Cannabinoid receptor 2 were 0.059 µM and 6.6 µM, respectively. Further, the Ratio Ki in the assay filed under Homo sapiens was 112. Also, on Cannabinoid receptor 1 [1], the inhibition stood at 93%.
Regarding `COc1ccccc1CNC(=O)c1oc2ccc(S(=O)(=O)N3CC(C)CC(C)C3)cc2c1C` (stereo not drawn), the figures for the Ki at Cannabinoid receptor 1 [2] and at Cannabinoid receptor 2 were 0.058 µM and 22.8 µM, respectively. Further, the Ratio Ki in the assay listed under Homo sapiens is 393. Further, on Cannabinoid receptor 1 [1], the inhibition turned out to be 97%.
Turning to `Cc1cccc(NC(=O)c2oc3ccc(S(=O)(=O)N4CC(C)CC(C)C4)cc3c2C)c1C` (stereo not drawn), the inhibition on Cannabinoid receptor 1 [1] worked out at 84%.
Take `Cc1c(C(=O)N2CCCCCC2)oc2ccc(S(=O)(=O)N3CC(C)CC(C)C3)cc12` (stereo not drawn): the Ki stood at 0.193 µM at Cannabinoid receptor 1 [2] and 4.9 µM on Cannabinoid receptor 2. Also, the Ratio Ki in the assay listed under Homo sapiens was found to be 25. At Cannabinoid receptor 1 [1], the inhibition is 90%.
`CCOc1ccccc1CNC(=O)c1oc2ccc(S(=O)(=O)N3CC(C)CC(C)C3)cc2c1C` (stereo not drawn): the results for the Ki at Cannabinoid receptor 1 [2] and at Cannabinoid receptor 2 were 0.097 µM and 9.9 µM, respectively. For the same compound, the Ratio Ki in the assay filed under Homo sapiens was found to be 102. At Cannabinoid receptor 1 [1], this compound came in with an inhibition of 96%.
Turning to `Cc1c(C(=O)NC2CCCc3ccccc32)oc2ccc(S(=O)(=O)N3CC(C)CC(C)C3)cc12` (stereo not drawn), a half-maximal effect at Cannabinoid receptor 1 [3] (EC50) was put at 0.0724 µM. Also, the Ki on Cannabinoid receptor 1 [2] was determined as 0.005 µM; on Cannabinoid receptor 2, 22.8 µM. Also, the Ratio Ki in the assay filed under Homo sapiens was found to be 4560. At Cannabinoid receptor 1 [1], the inhibition stood at 96%.
On to `Cc1c(C(=O)Nc2ccccc2Cl)oc2ccc(S(=O)(=O)N3CC(C)CC(C)C3)cc12` (stereo not drawn), for which the inhibition at Cannabinoid receptor 1 [1] worked out at 44%.
`Cc1c(C(=O)N(C)CCc2ccccc2)oc2ccc(S(=O)(=O)N3CC(C)CC(C)C3)cc12` (stereo not drawn) yielded a Ki on Cannabinoid receptor 1 [2] of 0.172 µM. Also, the inhibition on Cannabinoid receptor 1 [1] is 92%.
As to `Cc1c(C(=O)NC2CCCC2)oc2ccc(S(=O)(=O)N3CC(C)CC(C)C3)cc12` (stereo not drawn), the Ki at Cannabinoid receptor 1 [2] came to 0.09 µM; at Cannabinoid receptor 2 it was 7.4 µM. The Ratio Ki in the assay filed under Homo sapiens was 82. This compound gave an inhibition at Cannabinoid receptor 1 [1] of 95%.
As to `Cc1c(C(=O)NCCc2ccccc2)oc2ccc(S(=O)(=O)N3CC(C)CC(C)C3)cc12` (stereo not drawn), the inhibition constant (Ki) came out at 0.198 µM at Cannabinoid receptor 1 [2] and 6 µM at Cannabinoid receptor 2. In the assay listed under Homo sapiens, the Ratio Ki came out at 30. Besides, the inhibition on Cannabinoid receptor 1 [1] turned out to be 92%.

The values above are taken from ChEMBL document CHEMBL1142334, “Discovery of a novel class of selective human CB1 inverse agonists” (Bioorg Med Chem Lett, 2008).
